Source: publication PMC12523303, “Multi-Fused S,N-Heterocyclic Compounds for Targeting α-Synuclein Aggregates” (Cells, 2025)
Where “and” joins values, the source holds several entries; their conditions need not be identical. Identical values can stand only once. Like-named read-outs stand apart in the source and are kept apart here.

What was measured:
[1] = biological target: T1, MDR1 (Homo sapiens, UniProt P08183); experiment: Bidirectional transport in MDR1-transfected MDCK cell monolayers; format: in vitro ADME; conditions: dog; for recovery at 2 μM: MDCK-MDR1, MDR1-MDCK permeability assay; for Papp A→B at 2 μM: apical-to-basolateral, read-out: A→B apparent permeability
T1 construct: host or cells: MDCK cells
T1 sequence (P08183 whole entry): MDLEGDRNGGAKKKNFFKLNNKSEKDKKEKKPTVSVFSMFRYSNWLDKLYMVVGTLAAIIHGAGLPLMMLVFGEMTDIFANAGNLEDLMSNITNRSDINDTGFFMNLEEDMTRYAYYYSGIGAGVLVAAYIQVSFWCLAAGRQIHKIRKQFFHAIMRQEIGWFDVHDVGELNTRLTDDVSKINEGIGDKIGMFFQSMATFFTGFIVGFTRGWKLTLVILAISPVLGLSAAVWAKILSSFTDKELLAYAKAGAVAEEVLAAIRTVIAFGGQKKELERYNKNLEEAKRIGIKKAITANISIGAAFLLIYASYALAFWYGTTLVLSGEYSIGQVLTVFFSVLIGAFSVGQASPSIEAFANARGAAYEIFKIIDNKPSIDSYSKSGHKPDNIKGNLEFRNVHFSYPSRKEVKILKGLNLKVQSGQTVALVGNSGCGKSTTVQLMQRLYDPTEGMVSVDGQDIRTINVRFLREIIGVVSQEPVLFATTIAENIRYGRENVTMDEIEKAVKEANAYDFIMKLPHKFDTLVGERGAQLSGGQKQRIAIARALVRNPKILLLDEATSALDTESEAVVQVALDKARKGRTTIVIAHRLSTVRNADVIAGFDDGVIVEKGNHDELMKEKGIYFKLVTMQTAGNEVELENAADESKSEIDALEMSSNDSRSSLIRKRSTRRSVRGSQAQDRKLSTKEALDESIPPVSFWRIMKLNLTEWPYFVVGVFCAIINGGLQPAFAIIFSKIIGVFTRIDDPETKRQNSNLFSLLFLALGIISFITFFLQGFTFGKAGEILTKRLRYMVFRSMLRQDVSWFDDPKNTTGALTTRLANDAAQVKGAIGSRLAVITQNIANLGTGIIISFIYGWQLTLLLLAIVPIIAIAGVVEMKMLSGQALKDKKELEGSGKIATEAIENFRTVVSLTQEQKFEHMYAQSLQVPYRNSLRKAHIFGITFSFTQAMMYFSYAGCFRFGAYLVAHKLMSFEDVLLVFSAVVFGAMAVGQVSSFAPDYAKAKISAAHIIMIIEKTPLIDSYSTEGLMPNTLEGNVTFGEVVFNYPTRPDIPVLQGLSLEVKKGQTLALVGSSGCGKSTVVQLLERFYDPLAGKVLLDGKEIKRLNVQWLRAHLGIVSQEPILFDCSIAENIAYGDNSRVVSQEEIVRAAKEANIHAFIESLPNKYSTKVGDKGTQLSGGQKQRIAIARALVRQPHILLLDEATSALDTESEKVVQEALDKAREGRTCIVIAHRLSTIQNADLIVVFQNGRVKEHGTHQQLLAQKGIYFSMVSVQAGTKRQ
Experimental: (§1) MDR1-transfected MDCK cell monolayers, cultured for 5 days and obtained from the Netherlands Cancer Institute, were used for the in vitro bidirectional transport studies. Cells were maintained in Dulbecco’s Modified Eagle Medium (DMEM) supplemented with 10% fetal bovine serum (FBS) and 1% penicillin–streptomycin. They were subcultured every other day at a split ratio of 1:3 to 1:5. For transport experiments, cells were seeded onto polycarbonate Transwell® filter inserts (Millipore) in 24-well plates at a density of 500,000 cells per well. After 24 h, the medium was replaced, and the cells were cultured for an additional 4 days to allow tight junction formation before initiating the transport assays. Transport studies were performed in duplicate using a 2 μM concentration of test compound, in both apical-to-basolateral (A→B) and basolateral-to-apical (B→A) directions. The apparent permeability coefficient (P_app) was calculated using the following equation: Papp (cm/s) = (Vr/C0) (1/S) (dC/dt)
(§2) • P_app is the apparent permeability, • V_r is the volume of the receiver chamber, • C0 is the initial concentration in the donor chamber, • S is the surface area of the cell monolayer (0.7 cm^2; for a 24-well insert), • dC/dt is the rate of appearance of the compound in the receiver chamber.
(§3) The efflux ratio was calculated as: (1) Efflux ratio=Papp B−A/Papp A−B
(§4) Bioanalysis was carried out using LC-MS/MS.

[2] = biological target: T2, MDR1-transfected MDCK cells (Homo sapiens, UniProt P08183); experiment: as above; format: in vitro ADME; conditions: MDR1-MDCK
T2 construct: host or cells: MDCK cells
T2 sequence (P08183 whole entry): as above
Experimental: as §1, §2, §3, §4

[3] = system: DLB tissue; set-up: method as in PMID 38843838; conditions: cited from earlier work
[4] = biological target: T3, α-synuclein (α-syn) aggregates in PD brain homogenates (Homo sapiens, UniProt P37840); experiment: In vitro competition (Ki) assay vs [3H]asyn-44 in PD brain homogenates; format: binding; conditions: 1 nM [3H]asyn-44
T3 construct: Anterior cingulate cortex tissue from a Parkinson’s disease (PD) case; tissue Banner Sun Health Research Institute (Dr. Thomas Beach); host or cells: post-mortem human PD anterior cingulate cortex homogenate
Experimental: Anterior cingulate cortex tissue from a Parkinson’s disease (PD) case was generously provided by Dr. Thomas Beach at the Banner Sun Health Research Institute in Arizona, USA. […] Preparation of the frozen blocks for binding assays followed previously established protocols.
The equilibrium inhibition constants (Ki) for the unlabelled compounds were measured against [^3H]asyn-44 using our previously reported procedure. For these assays, frozen aliquots of homogenized human brain tissue (stored at −80 °C) were used. Homogenates were prepared at 10 mg/mL in phosphate-buffered saline, then diluted with 50 mM Tris buffer (pH 7.0) to a working concentration of 1 mg/mL.
Unlabeled competitor compounds were initially dissolved in DMSO at 400 μM, then diluted with Tris buffer to 20 μM, resulting in a 5% DMSO concentration. A serial dilution series (ranging from 6 μM to 4 nM) was prepared in the same 5% DMSO/Tris buffer solution to maintain consistent solvent conditions throughout the assay.
To perform the binding assay, 50 μL of the appropriately diluted competitor solution was mixed with 50 μL of [^3H]asyn-44 (1 nM final concentration) and 800 μL of Tris buffer containing 20% ethanol and 0.1% bovine serum albumin (BSA). Then, 100 μL of the 1 mg/mL brain homogenate was added, bringing the final tissue concentration to 100 μg/mL. The reaction mixtures were incubated at room temperature for 60 min before filtration through Whatman GF/B glass fibre filters using a Brandel M-24R cell harvester (Gaithersburg, MD, USA). Filters were washed three times with 3 mL of Tris buffer containing 20% ethanol and 0.1% BSA.
After washing, retained radioactivity was measured using CytoScint-ES scintillation fluid following thorough vortexing. Specific binding was calculated by correcting for nonspecific binding (as described later), and the amount of bound radioligand was derived from the filter-associated radioactivity and the molar activity of the tritiated compound.

[5] = biological target: T3, α-synuclein (α-syn) aggregates in PD brain homogenates; experiment: Two point screening assay (30 nM and 300 nM) vs [3H]asyn-44 in human PD brain homogenates; format: binding; conditions: for remaining activity at 0.03 µM: 30 nM competitor; for remaining activity at 0.3 µM: 300 nM competitor
Experimental: Screening assays for the test compounds were performed at two concentrations—30 nM and 300 nM—using unlabelled competitors in human PD brain homogenates against [^3H]asyn-44 as previously described. […] Each assay was conducted in triplicate for both concentrations to ensure reproducibility and statistical reliability.

[6] = Metabolic stability in human liver microsomes; format: in vitro ADME; conditions: for % disappearance at 5 minutes relative to time zero / % disappearance at 15 minutes relative to time zero / % disappearance at 30 minutes relative to time zero / Clearance Category / remaining at 5 min, 1 μM / remaining at 0.5 h, 1 μM: human liver microsomes; for Clearance Category: as per Cyprotex Website; for half-life at 1 μM: human, pH 7.4, human liver microsomes (h-MR); for half-life at 1 μM / remaining at 5 min, 1 μM / remaining at 0.5 h, 1 μM: pooled human liver microsomes; for remaining at 5 min, 1 μM / remaining at 0.5 h, 1 μM: pH 7.4; for % disappearance at 30 minutes relative to time zero / remaining at 0.5 h, 1 μM: 30 min
Experimental: Metabolic stability assays were conducted using pooled human liver microsomes (HLMs) to evaluate the rate of in vitro metabolic degradation of the test compound. Incubations were carried out in duplicate (n = 2) at a final compound concentration of 1 μM. The protein concentration of the microsomal suspension was adjusted to 0.5 mg/mL using phosphate buffer (100 mM, pH 7.4). Reactions were initiated by the addition of NADPH (final concentration 1 mM) and incubated at 37 °C. Aliquots were taken at four time points: 0, 5, 15, and 30 min. Each reaction was quenched with ice-cold acetonitrile containing internal standard, followed by centrifugation to pellet proteins. Supernatants were analyzed using a validated LC-MS/MS method to determine the concentration of the parent compound at each time point. […] Metabolic stability was assessed by calculating the percentage of the parent compound remaining at each time point. The elimination rate constant (k), half-life (t1/2), and intrinsic clearance (CLint) were derived from the natural log-transformed concentration vs. time data, assuming first-order kinetics.

[7] = biological target: T3, α-synuclein (α-syn) aggregates in PD brain homogenates; set-up: method as in PMID 38354298; conditions: parent ligand, value printed in Figure 2; cited from earlier work
[8] = biological target: post-mortem PD brain tissue; set-up: method as in PMID 38354298; conditions: cited from earlier work
[9] = biological target: α-syn fibrils; set-up: method as in PMID 40256311; conditions: cited from earlier work
[10] = biological target: PD brain tissue; set-up: method as in PMID 40256311; conditions: cited from earlier work
[11] = biological target: α-syn fibrils; set-up: method as in PMID 37421950; conditions: cited from earlier work
[12] = A→B, read-out: Calculated recovery, A→B direction
[13] = B→A, read-out: Calculated recovery, B→A direction

SMILES | Ki [4] | remaining activity at 0.03 µM [5] | remaining activity at 0.3 µM [5] | % disappearance at 5 minutes relative to time zero [6] | % disappearance at 15 minutes relative to time zero [6] | % disappearance at 30 minutes relative to time zero [6] | Clearance Category [6] | half-life at 1 μM [6] | remaining at 5 min, 1 μM [6] | remaining at 0.5 h, 1 μM [6] | further results
C[C@H]1O[C@@H](O[C@H]2[C@@H](O)C[C@H](O[C@H]3[C@@H](O)C[C@H](O[C@H]4CC[C@@]5(C)[C@H](CC[C@@H]6[C@@H]5C[C@@H](O)[C@]5(C)[C@@H](C7=CC(=O)OC7)CC[C@]65O)C4)O[C@@H]3C)O[C@@H]2C)C[C@H](O)[C@@H]1O [Digoxin] |  |  |  |  |  |  |  |  |  |  | recovery at 2 μM [1, 12]: 79.7%; recovery at 2 μM [1, 13]: 108%; Papp A→B at 2 μM ([1]; MDCK-MDR1, 2 μM): 1.65 ×10⁻⁶ cm/s; Efflux Category [2]: Substrate of efflux; Permeability Category [2]: Low
CNc1ccc(C#C/C=C/c2nc3ccc(OCC(O)C[18F])cc3s2)cn1 (stereo not drawn) [[^18F]C05-05] |  |  |  |  |  |  |  |  |  |  | IC50 [3]: 1.5 nM
CC(C)NCC(O)COc1cccc2ccccc12 (stereo not drawn) [Propranolol] |  |  |  |  |  |  |  |  |  |  | recovery at 2 μM [1, 12]: 95%; recovery at 2 μM [1, 13]: 116%; Papp A→B at 2 μM ([1]; MDCK-MDR1, 2 μM): 9.28 ×10⁻⁶ cm/s; Papp B→A at 2 μM ([1]; MDCK-MDR1, basolateral-to-apical, 2 μM, read-out: B→A apparent permeability): 8.03 ×10⁻⁶ cm/s; Efflux Category [2]: Not a substrate; Permeability Category [2]: Medium
F[C@@H]1CCN(c2cc(-n3cc4sc(-c5cccnc5)cc4n3)ncn2)C1 [LMD-052] | 6 nM | 27% | 2% | 60.3% | 82.8% | 94.4% | High | 7.6 min | 39.7% | 5.61% | 
F[C@@H]1CCN(c2ccc(-n3ncc4sc(-c5cncs5)cc43)cn2)C1 [LMD-046] | 12 nM and 11.8 nM | 43% | 8% | 96.6% | 97.9% |  |  |  | 3.43% |  | t1/2 ([6]; human liver microsomes (h-MR)): unstable
F[C@@H]1CCN(c2cnc(-c3ccc4scc(-c5cccnc5)c4n3)cn2)C1 [LMD-045] | 13 nM and 13.3 nM | 36% | 13% | 34.7% | 65.6% | 86.5% | High | 10.5 min | 65.3% | 13.5% | 
F[C@@H]1CCN(c2ccc(-c3ccc4sc(-c5cccnc5)cc4n3)cn2)C1 [Asyn-44] |  |  |  |  |  |  |  |  |  |  | Ki [7]: 9 nM; Kd [8]: 1.85 nM
F[C@@H]1CCN(c2ccc(-c3ccc4sc(-c5cncs5)cc4n3)cn2)C1 [LMD-006] | 12 nM | 53% | 2% | 60.2% | 88.1% | 95.7% | High | 6.81 min | 39.6% | 4.32% | 
F[C@@H]1CCN(c2ccc(-n3cc4sc(-c5cccnc5)cc4n3)cn2)C1 [LMD-032] | 50 nM | 38% | 25% | 46.7% | 79.2% | 95.0% | High | 7.05 min | 53.3% | 5.02% | 
[11CH3]Oc1ccc(NC(=O)c2cnc(N3CCN(c4ccccn4)CC3)nc2N)cc1 [[^11C]M503-1619] |  |  |  |  |  |  |  |  |  |  | Ki [9]: 6.5 nM; Kd [10]: 1.5 nM
FC1CCN(c2cnc(-n3cc4sc(-c5cccnc5)cc4n3)cn2)CC1 [LMD-051] | 9.2 nM | 38% | 4% | 24.2% | 64.3% | 69.7% | High | 17 min | 75.8% | 30.3% | 
F[C@@H]1CCN(c2cnc(-c3csc4ccc(-c5cccnc5)nc34)cn2)C1 [LMD-044] | 9.1 nM | 38% | 4% | 54.3% | 88.3% | 96.3% | High | 6.37 min | 45.7% | 3.71% | 
Cc1cc2nc(/C=C/c3ccc(O)c(Br)c3)sc2cc1N(C)CCOCC[18F] [[^18F]F0502B] |  |  |  |  |  |  |  |  |  |  | Kd [11]: 11 nM
